Peptide text beside a SMILES is read from it.

Data set [1] relates to human osteoblastic mesenchymal stem cells. The following applies: U.S. Pat. Nos. 7,888,462 and 8,426,558; cited from earlier work.
For data set [2], the system named is subjects with bilateral patello-femoral knee osteoarthritis. Briefly: Randomized double-blind placebo-controlled study of TPX-100 in patients with osteoarthritis of the knees (Example 1). The class given is in vivo, human. How it is done: A multicenter, randomized double-blind, placebo-controlled study was designed to investigate the safety, tolerability, pharmacokinetics, and efficacy of TPX-100 administered in four weekly doses in subjects with bilateral patello-femoral knee osteoarthritis. The study was conducted under an open IND (investigational new drug application) at CDER (Center for Drug Evaluation and Research) of the U.S. FDA (The United States Food and Drug Administration) in compliance with GCP (Good Clinical Practice) and ICH (International Conference on Harmonization of Technical Requirements for Registration of Pharmaceuticals for Human Use) guidelines. Eighteen (18) orthopedic, rheumatologic and family practice centers in the U.S. participated in the study.
The study was divided into Part A and Part B. The Part A was designed to evaluate safety of intra-articular (I.A.) administration of TPX-100 at different dosing levels (20, 50, 100, or 200 mg per injection in sequential cohorts) in the subjects with osteoarthritis of the knees and to select a dose for Part B. Part B was to evaluate safety and efficacy of the selected dose of TPX-100.
Subjects in Part A were enrolled in sequential cohorts and randomized to receive 20, 50, 100 or 200 mg of TPX-100 in one knee (Index Knee) and identical placebo in the contralateral (Control) knee. Subjects, sites and sponsor and central MRI readers were blinded as to treatment assignment. A Safety Review Committee (SRC) evaluated safety in each dosing cohort. The SRC assessed safety and determined whether the next higher dosing regimen could be enrolled. All dosing cohorts in Part A were completed and analyzed with regard to safety prior to dose selection and initiation of Part B.
Part A included four (4) intra-articular (I.A.) injections, one per week, in sequential dosing cohorts of 20, 50, 100 and 200 mg TPX-100 versus placebo. Six (6) subjects were enrolled in 20, 50, and 100 mg cohorts, respectively, and nine (9) subjects were enrolled in the 200 mg cohort.
The 200 mg dose was selected for Part B based on safety review and the approval of the SRC. […] Per the Statistical Analysis Plan, these subjects were combined with the nine subjects in the 200 mg cohort of Part A for the efficacy analysis. In total, data from 93 subjects was analyzed for drug efficacy, each of whom received 4 once-weekly injections of TPX-100, 200 mg/dose, in the Index knee and identical placebo in the contralateral knee, as randomly assigned. […]
If all clinical inclusion and exclusion criteria were met, MRIs of both knees were obtained and evaluated by a central reader to determine the ICRS grade (gICRS) of each knee as the final screening criterion. […]

Data set [3] has as its system defects in human molar. As to conditions: both Phase 2 studies (alveolar bone and dentin); cited from earlier work.
The test system of data set [4] is standardized large cartilage defects. The following applies: in vivo; cited from earlier work.
The conditions of data set [5]: human, in vivo; cited from earlier work.

On to “PDLLVRGDNDVPPFSGDGQHFMH [rat orthologue, TPX-100 orthologue (Rat/Mouse)]”, for which, in data set [1], the Tritium-thymidine incorporation result is listed as “promote tritium-thymidine incorporation”.

For the compound `CC[C@H](C)[C@H](NC(=O)[C@H](CC(=O)O)NC(=O)[C@H](CC(N)=O)NC(=O)[C@H](CC(=O)O)NC(=O)CNC(=O)[C@H](CCCNC(=N)N)NC(=O)[C@H](CCC(=O)O)NC(=O)[C@H](CCC(N)=O)NC(=O)[C@H](CC(C)C)NC(=O)[C@H](CC(=O)O)NC(=O)[C@@H](N)[C@@H](C)O)C(=O)N[C@@H](CO)C(=O)N1CCC[C@H]1C(=O)N[C@@H](Cc1ccccc1)C(=O)N[C@@H](CO)C(=O)NCC(=O)N[C@@H](CC(=O)O)C(=O)NCC(=O)N[C@@H](CCC(N)=O)C(=O)N1CCC[C@H]1C(=O)N[C@@H](Cc1ccccc1)C(=O)N[C@@H](CCCCN)C(=O)N[C@@H](CC(=O)O)C(N)=O` [TPX-100] (H-TDLQERGDNDISPFSGDGQPFKD-NH2; N-terminus assumed), the Dose-limiting toxicities entry in data set [2] (Part A, 20, 50, 100 and 200 mg per injection) is “no dose-limiting toxicities”. In data set [2] (human, in vivo), the Severe adverse events entry was “no severe adverse events that were related to TPX-100 treatment” and the Treatment-related adverse events entry is given as “mild or moderate, transient”. Besides, the Safety and tolerability result in data set [2] (intra-articular, Days 0, 7, 14, 21) was “safe and well tolerated”. Further, the Tolerability entry in data set [3] was “well tolerated in both studies”. Further, the Safety and tolerability result in data set [4] was “safe and well-tolerated”.

`N#Cc1c(N(CC(=O)[O-])CC(=O)[O-])sc(C(=O)[O-])c1CC(=O)[O-].[Sr+2].[Sr+2]` [strontium ranelate]: the Adverse effect entry in data set [5] is “increase the risk of myocardial infarction”.

The values are drawn from patent US12303590B2, “Method of treating osteoarthritis” (ORTHOTROPHIX, INC., priority 2018, dated 2025).
